Each structure is given as a SMILES string. Calls of active or inactive are those of the source. The rule behind the calls is not given here. Where only a bound is given, the exact number is not on record here.

Among the data in PubChem BioAssay AID540271 (Broad Institute, 2011) are AC50 values, retold here.

The test system of this assay is S. cerevisiae expressing PfHSP40, growth rescue, plate reader. Kind of assay: S cerevisiae expressing PfHSP40, growth rescue, cherry pick dose confirmatory, plate reader (AID 540271).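 Note: yeast growth read after three days of incubation at 30 °C.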
The term AC50 denotes the concentration at which the activity in the assay is half-maximal. For `C=CCNC(=S)N1CCC(Cc2ccccc2)CC1`, the AC50 is 11.3 µM.
In the case of `COc1cccc(/C=N/NC(=O)c2cc(-c3cccn3C)n[nH]2)c1O`, the AC50 was 10.2 µM.
Turning to `CC(C)(C)C(=O)C(Cl)C(=O)Nc1ccccc1` (configuration not stated), the AC50 was 5.65 µM.
The result for `Oc1ccc(/C=N/Nc2ccc(C(F)(F)F)cn2)c(O)c1` reads 2.14 µM; that for `Cc1c(C(=O)O)cccc1-c1ccc(/C=N/Nc2ccc(Br)cc2)o1`, 6.31 µM.
Take `O=C(CSc1ccc(-c2ccccn2)nn1)c1ccccc1`: the AC50 is 2.48 µM.
With `COc1ccc2c(c1)OC[C@H]1[C@H]2N2C(=O)c3cc(C)ccc3NC(=O)[C@@]2(C)[C@H]1c1ccccc1`, the AC50 is 6.11 µM.
The value for `O=C1c2ccccc2NC(c2ccc(-c3ccc(C(F)(F)F)cc3)o2)N1O` (configuration not stated) was 2.4 µM; that for `O=C1c2ccccc2C(=O)c2c1oc(C(F)(F)F)c2C(=O)c1ccccc1` was 1 µM.
The value for `CC1CCc2sc(-c3n[nH]c(=S)o3)cc2C1` (configuration not stated) was 5.69 µM; that for `O=C(O)c1ccccc1NS(=O)(=O)c1cccc(-n2sc3ccccc3c2=O)c1` was 4.78 µM.
`Cc1cc([N+](=O)[O-])c(NC2CCCCC2)c([N+](=O)[O-])c1`: the AC50 is 9.82 µM.
The value for `O/N=C(\c1ccc(Cl)cc1Cl)c1ncc(C(F)(F)F)cc1Cl` was 9.27 µM; that for `O=C(N/N=C/c1c(O)n(Cc2ccccc2)c(=O)c2ccccc12)c1cccnc1` was 6.92 µM; that for `O=C(Nc1nc(-c2ccccn2)cs1)c1ccc(Br)s1` was 0.584 µM.
For `Oc1c(Br)cc(-c2ccccc2)cc1Br`, the AC50 was 4.93 µM.
Regarding `CC(C)c1cc(-c2cc(C(=O)NCc3ccccc3)on2)nc(NCC2CC2)n1`, the AC50 is 5.24 µM.
The result for `COc1ccc(N(C(=O)c2ccncc2)S(=O)(=O)c2ccc(F)cc2)cc1` reads 5.25 µM; that for `COc1ccc2c(c1)OC[C@H]1[C@H]2N2C(=O)c3cc(OC)ccc3NC(=O)[C@@]2(C)[C@H]1c1ccccc1`, 4.84 µM; that for `CCOc1cc([N+](=O)[O-])cc(/C=N/NC(=O)c2c(-c3ccccc3)noc2C)c1O`, 4.9 µM.
Turning to `CCCNC(=O)c1ccc2c(=O)c(O)c(-c3ccc(F)cc3)[nH]c2c1`, the half-maximal activity concentration (AC50) was 6.08 µM.
The result for `Cc1cccc(NC(=S)NC(C)CCc2ccccc2)c1` (configuration not stated) reads 7.92 µM.
The value for `CC(C)CN=Cc1c(O)c([N+](=O)[O-])cc2oc3c(c12)CCCC3` was 1.33 µM.
The value for `CNC(=S)Nc1ccc(C23CC4CC(CC(C4)C2)C3)cc1` was 7.25 µM; that for `CC(/C=N/n1c(COc2ccccc2)n[nH]c1=S)=C\c1ccccc1` was 4.55 µM; that for `O=C1CC(O)(C(F)(F)F)Oc2c1ccc1ccccc21` (configuration not stated) was 5.78 µM.
Consider `CCOC(=O)c1cc2c(=Cc3ccc(N(C)C)cc3)c3ccccc3n2[n+]1C`, for which the AC50 was 3.75 µM.
Consider `O=C(N/N=C/c1cc(Br)ccc1O)c1ccccc1Cl`, for which the AC50 is 4.83 µM.
For the molecule `CCc1ccc([C@@H]2CC=C(C(=O)O)[C@H](c3ccc(Cl)cc3)N2S(=O)(=O)c2ccc(C)cc2)cc1`, the AC50 was 5.39 µM.
The result for `COc1cccc(/C=N/Nc2ncc(C(F)(F)F)cc2Cl)c1O` reads 1.49 µM; that for `Cc1[nH]n(-c2ccccc2)c(=O)c1/C=N/Nc1nncc(-c2ccccc2)n1`, 7.15 µM; that for `Clc1ccc(C(Cn2ccnc2)OCc2c(Cl)cccc2Cl)c(Cl)c1` (configuration not stated), 0.241 µM.
Regarding `Clc1ccc(CSC(Cn2ccnc2)c2ccc(Cl)cc2Cl)cc1` (configuration not stated), the AC50 is 0.25 µM.
The result for `Oc1c(C(Nc2cccc(C(F)(F)F)c2)c2ccncc2)ccc2cccnc12` (configuration not stated) reads 1.92 µM; that for `COc1ccc(-c2cc(C(=O)N3CCN(c4ccccc4F)CC3)c3ccccc3n2)c(OC)c1`, 5.68 µM.
The value for `CC[C@@H](C(=O)[C@@H](C)[C@@H](O)[C@H](C)[C@@H]1O[C@@H]([C@@H](CC)C(=O)O)CC[C@@H]1C)[C@H]1O[C@]2(C=C[C@@H](O)[C@]3(CC[C@@](C)([C@H]4CC[C@](O)(CC)[C@H](C)O4)O3)O2)[C@H](C)C[C@@H]1C` was 3 µM; that for `CCCCCCCN1N=C(C)C(C(=O)c2ccccc2)C1=O` (configuration not stated) was 3.73 µM.
For `O=C(NCCC1=CCCCC1)c1c(O)nc2sccn2c1=O`, the AC50 is 3.82 µM.
For `Cc1cccc(C)c1N1C(=O)C2ON(c3ccccc3)C(c3ccncc3)C2C1=O` (configuration not stated), the half-maximal activity concentration (AC50) was 6.34 µM.
The result for `O=C(Nc1nnc(-c2cccs2)o1)c1cccc(Oc2ccccc2)c1` reads 2.57 µM.
Take `CN(C)S(=O)(=O)c1cccc(NC(=S)NNC(=O)c2cc3ccccc3cc2O)c1`: the AC50 is 2.86 µM.
The value for `O=c1c(O)c(-c2ccccc2)oc2ccccc12` was 5.37 µM; that for `CCOC(=O)N1CCN(S(=O)(=O)c2ccc(C(=O)NNc3nc4ccc(Cl)cc4s3)cc2)CC1` was 5.51 µM; that for `COc1cccc(/C=N/Nc2ncnc(Cl)c2N)c1O` was 4.52 µM.
The result for `Cc1ccccc1C(=O)NNC(=S)NC(=O)c1ccc(Cl)cc1Cl` reads 2.36 µM.
The result for `C=CCN(CC=C)C(=S)NC(=O)c1ccc(C)c(Br)c1` reads 6.72 µM.
Take `C=CCn1c(-c2cc(-c3ccc(C)cc3)nc3ccccc23)n[nH]c1=S`: the AC50 is 5.81 µM.
The result for `c1ccc(CSc2ccc(-c3ccccn3)nn2)nc1` reads 4.49 µM; that for `O=[N+]([O-])c1cc(Cl)cc(/C=N/NC(=S)Nc2ccc(S(=O)(=O)N3CCOCC3)cc2)c1O`, 3.13 µM.
The value for `Cc1nc2ccc(C(C(F)(F)F)(C(F)(F)F)C(F)(F)F)cc2[nH]1` was 3.2 µM; that for `Cc1csc(NC(=O)C(C)Oc2ccc(Cl)cc2C)n1` (configuration not stated) was 8.4 µM.
Take `Cc1cccc2sc(NNC(=O)c3ccc(S(=O)(=O)N4CCCC(C)C4)cc3)nc12` (configuration not stated): the AC50 is 2.81 µM.
Consider `Cc1ccc2oc(-c3ccccc3)c(C(=O)O)c(=O)c2c1`, for which the AC50 is 5.94 µM.
Consider `CC(C)(C)C(=O)C(Oc1ccc(Cl)cc1)n1cncn1` (configuration not stated), for which the AC50 was 4.7 µM.
For the molecule `COc1ccc(OC)c2c1C(=O)C(Cl)=C(Cl)C2=O`, the AC50 is 1.4 µM.
The value for `CC(=O)C1=C(c2cccc([N+](=O)[O-])c2)N(C(C)=O)n2c(C)nnc2S1` was 2.7 µM; that for `COc1cnc(-c2ccccn2)nc1Sc1ccccc1` was 6.99 µM.
The result for `CSC(=S)N/N=C/c1ccccc1` reads 5.83 µM; that for `CSC1SCC2C(=O)N(C)C(C(C)C)C(=O)OCC(NC(=O)c3cnc4ccccc4n3)C(=O)NC(C)C(=O)N(C)C1C(=O)N(C)C(C(C)C)C(=O)OCC(NC(=O)c1cnc3ccccc3n1)C(=O)NC(C)C(=O)N2C` (configuration not stated), > 12 µM (inactive); that for `COc1ccc(NC(=O)/C(Cl)=C(/Cl)S(=O)(=O)Cc2ccc(C)cc2)cn1`, 4.67 µM.
As to `Cc1n[nH]c(C)c1N=Nc1ccc(Br)cc1`, the AC50 was 6.88 µM.
For the molecule `CCc1nc2ccccc2c(=O)n1NC(=O)c1c(O)c2ccccc2n(CC)c1=O`, the AC50 was 5.74 µM.
The result for `CC(=O)Nc1cccc(-c2cc(-c3c(Cl)cccc3Cl)no2)c1` reads 3.12 µM.
The value for `Cc1ccc(Nc2cc(C)nn2-c2nc(C)cc(C)n2)cc1` was 3.95 µM; that for `Oc1ccc(Cl)cc1CNc1cccc2cccnc12` was 6.73 µM; that for `Cc1ccc(-c2cc(-c3ccc(C)cc3)[n+](-c3ccccc3)c(-c3ccc(C)cc3)c2)cc1` was 5.4 µM.
The result for `O=C1c2cccc(Cl)c2C(=O)c2c1cccc2N1CCCC1` reads 4.9 µM; that for `Cc1ccccc1NC(=O)CSc1ccc(-c2ccccn2)nn1`, 4.42 µM.
As to `CC1(S(=O)(=O)O)CC(=O)c2ccccc2C1=O` (configuration not stated), the AC50 is > 12 µM (inactive).
The value for `Cc1ccc(C(=O)C(SC(C)(C)C)n2cncn2)cc1` (configuration not stated) was 5.78 µM; that for `CC(C)(C)c1ccc(Oc2ccc(N)cc2)cc1` was 7.32 µM.
As for `CCCCC(=O)NC(c1ccc(N(C)C)cc1)c1ccc2cccnc2c1O` (configuration not stated), the AC50 was 1.65 µM.
The value for `O=C(O)c1ccc(N/N=C/C2=C(N3CCOCC3)C(=C\c3ccccc3)/CC2)cc1` was 6.18 µM.
For the molecule `O=C(Nc1ccc(C2=NCCN2)cc1)c1ccc(C(=O)Nc2ccc(C3=NCCN3)cc2)c(Cl)c1`, the AC50 was 4.17 µM.
The result for `CC1CCN(c2nc(-c3ccncc3)nc3ccccc23)CC1` reads 7.47 µM; that for `O=C1Nc2c(Br)cccc2C1=O`, 11.6 µM.
`O=C(CSc1ccc(-c2ccccn2)nn1)N1CCCc2ccccc21`: the AC50 is 3.52 µM.
The value for `O=C(C1=C(Nc2ccccc2)c2ccccc2S(=O)(=O)N1)c1ccccc1` was 5.09 µM.
`Cc1nn(CCC#N)c(N)c1C1(O)C(=O)Nc2c(Cl)cc(Cl)cc21` (configuration not stated): the AC50 was 7.66 µM.
Consider `O=[N+]([O-])c1cc(C(F)(F)F)ccc1NCCc1c[nH]c2ccc(O)cc12`, for which the concentration at half-maximal activity (AC50) was 4.85 µM.
As for `Cc1ccc(Sc2ccc(NC(=O)CCl)cc2)cc1C`, the AC50 is 4.54 µM.
Consider `O=S(=O)(c1ccc(Cl)cc1)N1CCC2(CC1)OCCN2S(=O)(=O)c1cccs1`, for which the AC50 was 4.77 µM.
The value for `CC1=CC(=O)C=C(C)C1=NOS(=O)(=O)c1ccccc1` was 4.15 µM.
On to `Cc1ccc(NC(=S)Nc2cccc3cnccc23)cc1C`, for which the AC50 is > 12 µM (inactive).
With `O=c1c(/C=N/O)coc2ccc(Cl)cc12`, the AC50 is > 12 µM (inactive).
The result for `O=C(c1ccccc1)c1ccc(Cn2cc(-c3ccccc3)nn2)cc1` reads 4.34 µM.
The value for `Cn1ccc(=Nc2ccc(NC(=O)c3ccc(N=c4ccn(C)c5ccc([N+](=O)[O-])cc45)cc3)cc2)cc1` was 6.48 µM.
The value for `CC(=O)Oc1ccc(OC(C)=O)c(SCCCCCCl)c1` was 7.6 µM; that for `O=C(Nc1ccccc1N1CCOCC1)c1cc2c(s1)CCCCC2` was 6.04 µM; that for `CCOC(=O)c1ccc(-c2ccc(C3Nc4ccccc4C(=O)N3O)o2)cc1` (configuration not stated) was 3.91 µM.
As for `FC(F)(F)c1cccc(N2CCc3cn[nH]c32)c1`, the AC50 was 0.446 µM.
The value for `Cc1cc(F)ccc1S(=O)(=O)N(C(=O)c1ccncc1)c1ccc(OC(=O)c2ccncc2)cc1` was 6.3 µM.
`c1ccc(-c2ccc(OCCCn3cncn3)cc2)cc1`: the AC50 was 5.48 µM.
The value for `O/N=C/c1ccccc1OCc1ccc(Cl)cc1` was 5.07 µM; that for `CCCOc1ccc(S(=O)(=O)n2cc(F)c(=O)[nH]c2=O)cc1` was 3.66 µM.
The value for `CC(C)C(=O)NC(c1cccc([N+](=O)[O-])c1)c1ccc2cccnc2c1O` (configuration not stated) was 1.27 µM.
For the molecule `c1ccc(C(=NNc2nc3ccccc3s2)c2ccccn2)cc1`, the AC50 is 2.52 µM.
